Test results taken from the NIST ThermoML archive (doi:10.1016/j.jct.2011.10.027).

Assay: xn = mol fraction of the nth substance listed
Details: 101 kPa, Liquid, Vibrating tube method

CCCCN(CCCC)CCCC [tributylamine] + Cc1cccc(C)c1
mass density [kg/m3]
Details | 293.15 K | 298.15 K | 303.15 K | 313.15 K | 323.15 K | 333.15 K
x1 = 0.0803 | 851.21 | 846.99 | 842.76 | 834.27 | 825.72 | 817.11
x1 = 0.1564 | 840.57 | 836.42 | 832.26 | 823.89 | 815.48 | 806.98
x1 = 0.2405 | 830.31 | 826.21 | 822.11 | 813.87 | 805.59 | 797.24
x1 = 0.3223 | 821.61 | 817.57 | 813.53 | 805.4 | 797.23 | 788.99
x1 = 0.3983 | 814.42 | 810.43 | 806.43 | 798.4 | 790.32 | 782.19
x1 = 0.4784 | 807.64 | 803.69 | 799.74 | 791.81 | 783.83 | 775.79
x1 = 0.5497 | 802.22 | 798.31 | 794.4 | 786.54 | 778.64 | 770.68
x1 = 0.6375 | 796.16 | 792.3 | 788.42 | 780.65 | 772.84 | 764.97
x1 = 0.7175 | 791.21 | 787.38 | 783.55 | 775.85 | 768.1 | 760.32
x1 = 0.7958 | 786.77 | 782.98 | 779.18 | 771.54 | 763.87 | 756.15
x1 = 0.8823 | 782.31 | 778.55 | 774.78 | 767.21 | 759.6 | 751.95
x1 = 0.9616 | 778.58 | 774.84 | 771.1 | 763.6 | 756.05 | 748.45

CCCCN(CCCC)CCCC [tributylamine] + Cc1ccc(C)cc1
mass density [kg/m3]
Details | 293.15 K | 298.15 K | 303.15 K | 313.15 K | 323.15 K | 333.15 K
x1 = 0.0834 | 848.23 | 843.97 | 839.71 | 831.14 | 822.53 | 813.86
x1 = 0.1617 | 837.85 | 833.67 | 829.48 | 821.06 | 812.59 | 804.05
x1 = 0.2416 | 828.6 | 824.47 | 820.35 | 812.06 | 803.72 | 795.32
x1 = 0.3196 | 820.59 | 816.53 | 812.46 | 804.29 | 796.06 | 787.79
x1 = 0.3984 | 813.4 | 809.38 | 805.37 | 797.3 | 789.19 | 781.03
x1 = 0.482 | 806.6 | 802.64 | 798.67 | 790.72 | 782.71 | 774.64
x1 = 0.56 | 800.89 | 796.97 | 793.04 | 785.17 | 777.26 | 769.29
x1 = 0.633 | 796.02 | 792.14 | 788.26 | 780.46 | 772.62 | 764.73
x1 = 0.7229 | 790.59 | 786.75 | 782.91 | 775.2 | 767.45 | 759.65
x1 = 0.7717 | 787.86 | 784.05 | 780.24 | 772.57 | 764.86 | 757.1
x1 = 0.878 | 782.45 | 778.68 | 774.9 | 767.33 | 759.71 | 752.04
x1 = 0.9458 | 779.3 | 775.56 | 771.81 | 764.28 | 756.72 | 749.1
